Values quoted from earlier work in US20050143441A1, “Novel medical combination treatment of obesity involving 4,5-dihydro-1H-pyrazole derivatives having CB1-antagonistic activity” (priority 2003, published 2005).

Tests used:
[1] = test system: excretion of fat from the diet; conditions: healthy male volunteers, 5 days
[2] = in vivo
[3] = clinically obese patients
[4] = test system: carragheenin induced swelling; conditions: mice
plasma lipases = conditions: relative to THL
[5] = molecular target: T1, porcine pancreatic lipase (Sus scrofa, UniProt P00591)
T1 sequence (P00591 1-450): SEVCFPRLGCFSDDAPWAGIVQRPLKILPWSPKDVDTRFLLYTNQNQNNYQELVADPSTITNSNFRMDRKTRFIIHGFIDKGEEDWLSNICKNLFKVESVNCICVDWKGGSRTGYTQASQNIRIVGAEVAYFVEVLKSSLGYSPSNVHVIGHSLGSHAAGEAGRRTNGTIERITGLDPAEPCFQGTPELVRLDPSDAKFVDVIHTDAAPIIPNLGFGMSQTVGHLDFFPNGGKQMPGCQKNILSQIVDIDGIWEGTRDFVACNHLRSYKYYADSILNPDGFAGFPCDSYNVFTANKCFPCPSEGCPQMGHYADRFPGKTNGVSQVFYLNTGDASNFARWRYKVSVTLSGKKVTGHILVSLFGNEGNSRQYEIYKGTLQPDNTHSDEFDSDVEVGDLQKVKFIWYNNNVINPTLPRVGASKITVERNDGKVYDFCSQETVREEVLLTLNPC

CCCCCCCCCCCCCCCCOc1nc2ccc(C)cc2c(=O)o1 [ATL-962, 2-hexadecyloxy-6-methyl-4H-3,1-benzoxazin-4-one]
safety and tolerability, phase Ib [1]: safe and well tolerated
toxicity in preclinical studies [2]: no toxicity was observed
safety and tolerability, phase IIb [3]: safe and generally well tolerated

CC[C@@H](C)[C@@H](O)[C@H](C)C(=O)[C@H](C)/C=C(\C)C[C@H](C)[C@@H]1OC(=O)[C@H]1CC [Ebelactone B]
carragheenin induced swelling [4]: reduces carragheenin induced swelling

CCCCCCC[C@@H](C[C@@H]1OC(=O)[C@H]1CCCCCCCC(C)C)OC(=O)[C@H](C)NC=O [Panclicin A]
potency against plasma lipases compared with THL (plasma lipases): same potency as THL
mode of inhibition of pancreatic lipase (irreversibility) [5]: irreversibly inhibit pancreatic lipase

CCCCCCC[C@@H](C[C@@H]1OC(=O)[C@H]1CCCCCCCC(C)C)OC(=O)CNC=O [Panclicin C]
mode of inhibition of pancreatic lipase (irreversibility) [5]: irreversibly inhibit pancreatic lipase

CCCCCCCCCC[C@@H]1C(=O)O[C@H]1C[C@H](CCCCCCC)OC(=O)CNC=O [Panclicin D]
mode of inhibition of pancreatic lipase (irreversibility) [5]: irreversibly inhibit pancreatic lipase

CCCCCCCCCCCC[C@@H]1C(=O)O[C@H]1C[C@H](CCCCCCC)OC(=O)CNC=O [Panclicin E]
mode of inhibition of pancreatic lipase (irreversibility) [5]: irreversibly inhibit pancreatic lipase

CCCCCCCCCCC[C@@H](C[C@@H]1OC(=O)[C@H]1CCCCCC)OC(=O)[C@H](CC(C)C)NC=O [tetrahydrolipstatin, (2S,3S,5S)-5-((S)-2-4-methylvaleryloxy)-2-heyl-3-hydroxy-hexadecanoic acid lactone]
fat excreted, average ([1]; orlistat 120 mg tid): 5.6 (+/−3.8) g/day
